Experimental data as given in paper PMC7412065, “In Vitro Antimicrobial and Antiproliferative Activities of the Root Bark Extract and Isolated Chemical Constituents of Zanthoxylum paracanthum Kokwaro (Rutaceae)” (Plants, 2020).
≈ marks a conversion by molar mass, not a printed value. Like-named read-outs stand apart in the source and are kept apart here.

Columns and labels:
MRSA = tested on: MRSA; design: method as in PMID 22864735; conditions: compound isolated from Zanthoxylum rhetsa roots; cited from earlier work
[1] = tested on: Candida albicans (ATCC 10231); assay: Broth dilution MIC against C. albicans; format: cell-based; conditions: for MIC: Candida albicans, read-out: Antimicrobial minimal inhibition concentration (MIC), C. albicans; for Growth inhibition of C. albicans (in words): up to 1000 µg/mL
[2] = tested on: methicillin resistant Staphylococcus aureus (MRSA), un-typed isolate; assay: Broth dilution MIC against MRSA; format: cell-based; conditions: for MIC: Staphylococcus aureus, MRSA, read-out: Antimicrobial minimal inhibition concentration (MIC), MRSA; for MIC / Antimicrobial minimal inhibition concentration (MIC), MRSA: 24 h; for Growth inhibition of MRSA (in words): up to 1000 µg/mL
[3] = MTT cytotoxicity assay, normal cell line; conditions: African green monkey
[4] = tested on: human breast cancer cell line (HCC 1395); assay: MTT antiproliferative assay, breast cancer cells; format: cell-based; conditions: for IC50: Homo sapiens; for Selectivity Indexes HCC 1395: SI = CC50 (Vero E6) / IC50 (HCC 1395)
[5] = tested on: Escherichia coli (ATCC 25922); assay: Broth dilution MIC against E. coli; format: cell-based; conditions: for MIC: Escherichia coli, read-out: Antimicrobial minimal inhibition concentration (MIC), E. coli
[6] = tested on: Staphylococcus aureus (ATCC 29213); assay: Broth dilution MIC against S. aureus; format: cell-based; conditions: for MIC: Staphylococcus aureus, ATCC29213, 24 h, read-out: Antimicrobial minimal inhibition concentration (MIC), S. aureus
E. coli = tested on: E. coli; design: method as in PMID 22864735; conditions: compound isolated from Zanthoxylum rhetsa roots; cited from earlier work
[7] = tested on: human prostate cancer cell line (DU 145); assay: MTT antiproliferative assay, prostate cancer cells; format: cell-based; conditions: for IC50: Homo sapiens; for Selectivity Indexes DU 145: SI = CC50 (Vero E6) / IC50 (DU 145)
Clostridium sporogenes = tested on: Clostridium sporogenes; design: method as in PMID 25546028; conditions: cited from earlier work
Streptococcus pyogenes = tested on: Streptococcus pyogenes; design: method as in PMID 25546028; conditions: cited from earlier work
in vitro = conditions: African green monkey
[8] = ATCC10231, ATCC 10231, broth two-fold dilution, 30 °C, 72 h
[9] = HCC1395, MTT assay, Mean ± SEM, triplicate, read-out: IC50 Cancerous Cell Lines HCC 1395
[10] = ATCC25922, ATCC 25922, broth two-fold dilution, 37 °C, 24 h
[11] = ATCC 29213, broth two-fold dilution, 37 °C, 24 h
[12] = DU-145, MTT assay, Mean ± SEM, triplicate, read-out: IC50 Cancerous Cell Lines DU 145
[13] = Vero E6 cells (normal cell line)

COc1ccc2c(c1OC)C(CC(C)=O)N(C)c1c-2ccc2cc3c(cc12)OCO3 (centres unmarked) [8-acetonyldihydrochelerythrine (4), 8-acetonyldihydrochelerythrine]
MIC against MRSA (MRSA): 8 µg/mL (≈ 19.7 µM) | MIC [1, 8]: 62.5 µg/mL (≈ 154 µM) | MIC [2]: 31.2 µg/mL (≈ 77.1 µM) | CC50 at 48 h [3]: 47.8 ± 1.15 µg/mL (≈ 118 µM) | IC50 [4, 9]: 9.99 ± 0.6 µg/mL (≈ 24.6 µM) | Selectivity Indexes HCC 1395 [4]: 4.79 | MIC [5, 10]: 15.6 µg/mL (≈ 38.5 µM) | MIC [6, 11]: 15.6 µg/mL (≈ 38.5 µM) | MIC against E. coli (E. coli): 16 µg/mL (≈ 39.5 µM) | IC50 [7, 12]: 66.82 ± 0.58 µg/mL (≈ 165 µM) | Selectivity Indexes DU 145 [7]: 0.72

COc1ccc2c(c1OC)c(=O)n(C)c1c3cc4c(cc3ccc21)OCO4 [8-oxochelerythrine (8), 8-oxochelerythrine]
MIC [1, 8]: 15.6 µg/mL (≈ 43 µM) | MIC ([2]; broth two-fold dilution, 37 °C): 62.5 µg/mL (≈ 172 µM) | Antimicrobial minimal inhibition concentration (MIC), MRSA ([2]; broth two-fold dilution, 37 °C): 62.50 µg/mL | CC50 at 48 h [3, 13]: 135.32 ± 0.12 µg/mL (≈ 372 µM) | MIC against Clostridium sporogenes (Clostridium sporogenes): 0.91 µM (≈ 0.331 µg/mL) | IC50 [4, 9]: 14.1 ± 0.3 µg/mL (≈ 38.8 µM) | Selectivity Indexes HCC 1395 [4]: 9.60 | MIC [5, 10]: 3.91 µg/mL (≈ 10.8 µM) | MIC against Streptococcus pyogenes (Streptococcus pyogenes): 3.64 µM (≈ 1.32 µg/mL) | IC50 [7, 12]: 63.4 ± 1.1 µg/mL (≈ 175 µM) | Selectivity Indexes DU 145 [7]: 2.13

COc1ccc2c(c1)c1ccnc3ccc(=O)n2c31 [10-methoxycanthin-6-one (6), 10-methoxycanthin-6-one]
MIC [1, 8]: 7.81 µg/mL (≈ 31.2 µM) | MIC ([2]; broth two-fold dilution, 37 °C): 3.91 µg/mL (≈ 15.6 µM) | CC50 at 48 h [3, 13]: 53.95 ± 0.38 µg/mL (≈ 216 µM) | IC50 [4, 9]: 14.7 ± 0.5 µg/mL (≈ 58.7 µM) | Selectivity Indexes HCC 1395 [4]: 3.67 | MIC [5, 10]: 3.91 µg/mL (≈ 15.6 µM) | MIC [6, 11]: 1.95 µg/mL (≈ 7.79 µM) | IC50 [7, 12]: 1.58 µg/mL (≈ 6.31 µM) | Selectivity Indexes DU 145 [7]: 34.15

COc1cccc2c1C(=O)c1c(O)c3c(c(O)c1C2=O)C[C@@](O)(C(=O)CO)C[C@@H]3O[C@H]1C[C@H](N)[C@H](O)[C@H](C)O1 [Doxorubicin, reference compound]
CC50 at 48 h (in vitro): 0.3 ± 0.12 µg/mL (≈ 0.552 µM) | IC50 [4, 9]: 0.21 ± 0.2 µg/mL (≈ 0.386 µM) | Selectivity Indexes HCC 1395 [4]: 1.41 | IC50 [7, 12]: 0.59 ± 0.01 µg/mL (≈ 1.09 µM) | Selectivity Indexes DU 145 [7]: 0.51

OC(Cn1cncn1)(Cn1cncn1)c1ccc(F)cc1F [Fluconazole, reference compound]
MIC [1, 8]: 1.95 µg/mL (≈ 6.37 µM)

O=c1ccc2nccc3c4ccccc4n1c23 [canthin-6-one (7), canthin-6-one]
MIC [1, 8]: 3.91 µg/mL (≈ 17.8 µM) | MIC ([2]; broth two-fold dilution, 37 °C): 0.97 µg/mL (≈ 4.4 µM) | Antimicrobial minimal inhibition concentration (MIC), MRSA ([2]; broth two-fold dilution, 37 °C): 0.98 µg/mL | CC50 at 48 h [3, 13]: 41.8 ± 0.64 µg/mL (≈ 190 µM) | IC50 [4, 9]: 8.12 ± 0.6 µg/mL (≈ 36.9 µM) | Selectivity Indexes HCC 1395 [4]: 5.15 | MIC [5, 10]: 1.95 µg/mL (≈ 8.85 µM) | Antimicrobial minimal inhibition concentration (MIC), S. aureus [6, 11]: 0.49 µg/mL | MIC [6, 11]: 0.48 µg/mL (≈ 2.18 µM) | IC50 [7, 12]: 9.43 ± 0.01 µg/mL (≈ 42.8 µM) | Selectivity Indexes DU 145 [7]: 4.43

CCCCCCCCCCCCCC(=O)O [myristic acid (1), myristic acid]
MIC [1, 8]: > 1000 µg/mL | MIC ([2]; broth two-fold dilution, 37 °C): > 1000 µg/mL | CC50 at 48 h [3, 13]: 64.86 ± 0.51 µg/mL (≈ 284 µM) | IC50 [4, 9]: 57.7 ± 1.2 µg/mL (≈ 253 µM) | Selectivity Indexes HCC 1395 [4]: 1.12 | MIC [5, 10]: > 1000 µg/mL | MIC [6, 11]: > 1000 µg/mL | IC50 [7, 12]: 80.24 ± 0.12 µg/mL (≈ 351 µM) | Selectivity Indexes DU 145 [7]: 0.81

c1cc2c(cc1[C@H]1OC[C@H]3[C@@H]1CO[C@@H]3c1ccc3c(c1)OCO3)OCO2 [sesamin (3), sesamin]
CC50 at 48 h (in vitro): 135.31 ± 0.12 µg/mL (≈ 382 µM) | MIC [1, 8]: > 1000 µg/mL | Growth inhibition of C. albicans (in words) [1]: no activity | MIC ([2]; broth two-fold dilution, 37 °C): > 1000 µg/mL | Growth inhibition of MRSA (in words) [2]: no activity | IC50 [4, 9]: 3.39 ± 1 µg/mL (≈ 9.57 µM) | Selectivity Indexes HCC 1395 [4]: 39.97 | MIC [5, 10]: > 1000 µg/mL | Growth inhibition of E. coli (in words) ([5]; up to 1000 µg/mL): no activity | MIC [6, 11]: 500 µg/mL (≈ 1410 µM) | IC50 [7, 12]: 115.06 ± 0.03 µg/mL (≈ 325 µM) | Selectivity Indexes DU 145 [7]: 1.18

CC[C@H](/C=C/[C@@H](C)[C@H]1CC[C@H]2[C@@H]3CC=C4C[C@@H](O)CC[C@]4(C)[C@H]3CC[C@]12C)C(C)C [stigmasterol (2), stigmasterol]
MIC ([1]; ATCC10231, 72 h): > 1000 µg/mL | Growth inhibition of C. albicans (in words) [1]: did not inhibit the growth | MIC [2]: > 1000 µg/mL | Growth inhibition of MRSA (in words) [2]: did not inhibit the growth | CC50 at 48 h [3]: 124 µg/mL (≈ 300 µM) | IC50 ([4]; HCC1395, read-out: IC50 Cancerous Cell Lines HCC 1395): 0.42 ± 0.1 µg/mL (≈ 1.02 µM) | Selectivity Indexes HCC 1395 [4]: 294.94 | MIC ([5]; ATCC25922, 24 h): 15.6 µg/mL (≈ 37.9 µM) | MIC [6]: 62.5 µg/mL (≈ 151 µM) | IC50 ([7]; DU-145, read-out: IC50 Cancerous Cell Lines DU 145): 140.5 ± 1.27 µg/mL (≈ 340 µM) | Selectivity Indexes DU 145 [7]: 0.88

Omacilin [reference compound]
Antimicrobial minimal inhibition concentration (MIC), MRSA ([2]; broth two-fold dilution, 37 °C): 0.98 µg/mL | Antimicrobial minimal inhibition concentration (MIC), E. coli ([5]; ATCC 25922, broth two-fold dilution, 37 °C, 24 h): 0.98 µg/mL | Antimicrobial minimal inhibition concentration (MIC), S. aureus [6, 11]: 0.49 µg/mL
